# Assay results as given in patent US9090624B2, “Aromatic bycyclic derivatives as CXCR4 receptor modulators” (Allergan, Inc., priority 2011, dated 2015).
# Biological target: T1, human CXCR4 receptor (Homo sapiens, UniProt P61073)
# T1 construct: expressed in transfected cells
# Test: Measurement of intracellular Ca+2 responses (FLIPR), antagonism of the SDF-1α response
# Assay type: cell-based
# Settings: HEK-Gqi5 cells stably expressing human CXCR4; for IC50: antagonism of SDF-1α at 1.9 nM (EC65), Fluo-4 calcium, FLIPR; for inhibition: percent antagonism of SDF-1α at 1.9 nM (EC65), test drug 2.44 nM to 40,000 nM
# Protocol: Measurement of Intracellular Ca^+2 Responses for CXCR4 Compounds
# HEK-Gqi5 cells stably expressing the human CXCR4 receptor were utilized for these studies. The growth media for the CXCR4 receptor expressing cell line was DMEM high glucose medium supplemented with 10% fetal bovine serum (FBS), 1% antibiotic-antimycotic, 50 ug/ml hygromycin B, and 400 μg/ml geneticin. Ten thousand cells per well were plated into 384-well poly-D-lysine coated plates one day prior to use. On the day of the experiment, the cells were washed twice with Hank's Balanced Salt Solution supplemented with 20 mM hepes (HBSS/hepes buffer). The cells were then dye loaded with 2 uM Fluo-4 diluted in the HBSS/Hepes buffer and incubated at 37° C. for 40 minutes. Extracellular dye was removed by washing the cell plates four times prior to placing the plates in the FLIPR (Fluorometric Imaging Plate Reader, Molecular Devices). Ligands were diluted in HBSS/Hepes buffer and prepared in 384-well microplates. The positive control, stromal-cell derived factor-1 (SDF-1α), was diluted in HBSS/Hepes buffer with 4 mg/ml fatty acid free bovine serum albumin. Two drug additions were made by the FLIPR. The first drug addition was the test drug in concentrations ranging from 2.44 nM to 40,000 nM. After this addition, fluorescent measurements were taken. Any calcium release in response to this drug addition represents agonist activity of the compounds. The second drug addition was SDF-1α at a final concentration of 1.9 nM (EC65). Fluorescence measurements were also taken after this second drug addition and were used to determine the ability of the test compounds to antagonize the SDF-1α response. Results were expressed as EC50 and efficacy values, as well as IC50 and percent antagonism values. As controls, SDF-1α (CXCR4 agonist) and AMD3100 (CXCR4 antagonist) dose-response curves were also determined in each study.
# T1 sequence (P61073 whole entry): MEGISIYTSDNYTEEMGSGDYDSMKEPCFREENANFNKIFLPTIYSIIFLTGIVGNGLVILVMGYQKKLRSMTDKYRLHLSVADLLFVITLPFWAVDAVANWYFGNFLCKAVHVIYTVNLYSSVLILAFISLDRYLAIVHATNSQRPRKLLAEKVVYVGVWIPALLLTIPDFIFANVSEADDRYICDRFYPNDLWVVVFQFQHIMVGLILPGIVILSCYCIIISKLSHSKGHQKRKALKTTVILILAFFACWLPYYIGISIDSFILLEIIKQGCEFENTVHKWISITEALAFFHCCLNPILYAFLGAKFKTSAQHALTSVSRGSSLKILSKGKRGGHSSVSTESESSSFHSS
IC50,inhibition,SMILES
2.92 µM,93%,"COc1cccc(N(C)C)c1CN1CCC(Nc2nc(NCCN(C)C)nc3c2CCC3)CC1 [Compound 1, N^2-[2-(Dimethylamino)ethyl]-N^4-{1-[2-(dimethylamino)-6-methoxybenzyl]piperidin-4-yl}-6,7-dihydro-5H-cyclopenta[d]pyrimidine-2,4-diamine]"
0.11 µM,95%,CN(C)CCNc1nc(NC2CCN(Cc3c(OCCN(C)C)cccc3N(C)C)CC2)c2sccc2n1 [Compound 2]
